{"source": "paper PMC6158189", "about": "“A pharmacological probe identifies cystathionine β-synthase as a new negative regulator for ferroptosis” (Cell Death & Disease, 2018)", "key": {"hCSE": {"molecular_target": "hCSE (Homo sapiens, UniProt P32929)", "sequence (P32929 whole entry)": "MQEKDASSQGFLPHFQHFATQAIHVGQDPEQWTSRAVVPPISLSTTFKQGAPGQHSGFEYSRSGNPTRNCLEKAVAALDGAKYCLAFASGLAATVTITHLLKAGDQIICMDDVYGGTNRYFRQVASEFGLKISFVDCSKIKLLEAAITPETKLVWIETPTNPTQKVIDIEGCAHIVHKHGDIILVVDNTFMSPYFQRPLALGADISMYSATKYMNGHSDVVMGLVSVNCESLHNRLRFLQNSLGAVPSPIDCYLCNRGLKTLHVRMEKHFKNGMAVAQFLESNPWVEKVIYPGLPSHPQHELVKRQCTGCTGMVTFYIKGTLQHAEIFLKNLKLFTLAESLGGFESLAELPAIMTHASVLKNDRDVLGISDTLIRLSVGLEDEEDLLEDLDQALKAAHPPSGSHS", "experiment": "H2S in HEK293T cells transiently expressing hCSE (AzMC probe)", "type": "cell-based", "conditions": "10 μM, 8 h", "method": "HEK293T cells were transiently transfected with empty vector (EV, i and ii), hCBS-FL (iii and iv) or hCSE (v and vi) plasmids, followed by incubation with DMSO (i–iii and v) or 10 μM CH004 (iv and vi) for 8 h before staining with 50 μM AzMC, a H2S-specific probe (“Materials and Methods” section). For larger fluorescent and bright-field images, please see Supplementary Figure 4. The expression levels of hCBS or hCSE in HEK293T cells after transient transfections were determined by western blotting using an anti-CBS antibody (3E1, 1:2000; Abnova) or anti-CSE antibody (1:500, GeneTex). The densities of protein bands for hCBS or hCSE in the blots were quantified with the ImageJ software (National Institutes of Health, Bethesda, MD, USA) and expressed as ratios of respective control (EV group). […] The fluorescent images of the H2S (blue) were accordingly quantified (“Materials and Methods” section) with ImageJ. […] A representative fluorescence image from three independent experiments is shown. […]\nH2S levels in living cells were detected using a H2S-specific fluorescent probe according to a protocol described previously[31],[55]. […] After incubation with 50 μM AzMC at 37 °C for 30 min, the cells were washed 4 times with PBS, and the fluorescent images were recorded with excitation by 405 nm laser by using a A1Si (Nikon) confocal microscope. […]"}, "[1]": {"tested_on": "H22 mouse liver tumor cells in ICR mice", "conditions": "10 mg/kg/day i.v.", "method": "Fig. 7 CH004 suppresses tumor growth in vivo. a–c CH004 reduces the growth rate of tumors in liver tumor xenograft mice model. Mice bearing liver tumor xenografts were treated with CH004 (10 mg/kg/d), cyclophophamide (CTX, 20 mg/kg/d) or PBS (Vehicle) for 21 days. The tumor volumes were measured every two days during day 6 to day 22 and the data was presented in a (n = 8). […] Mice body weight was measured along with the measurement of tumor volume (n = 8). Means ± SDS. Statistical analyses were performed on the raw data by one-way (c) or two-way ANOVA (a) with Bonferroni post-tests. The significance of the CH004-treated group compared to Vehicle was indicated with $ (a), whereas the comparison of the CTX group to Vehicle was with # (a). $, # or ***p < 0.001\nThe in vivo effect of CH004 on tumor growth was evaluated in a xenograft mice model of liver cancer. The experiment was independently performed by Jiangsu KeyGEN BioTECH Co. LTD (Jiangsu, China) and followed the standard procedures that were established and approved by the local Animal Care and Use Committee. Briefly, H22 mouse liver tumor cells were intraperitoneal injected into female ICR mice (SLAC Laboratory Animal Co. Ltd, Shanghai, China). 8 days later, mice with distended abdomen were killed, and the ascites was collected, washed and resuspended with PBS. 0.1 ml cell suspension with a density of 1 × 10^7/ml was subcutaneously injected into the right dorsum of ICR female mice (~20 g). The mice bearing H22 tumor cells were then randomized into groups (n = 8) on the following day after the implantation. Then, the mice were injected via a tail vein (i.v.) with PBS, CH004 (10 mg/kg) or cyclophosphamide (CTX, a known anticancer drug; 20 mg/kg) once per day and for 21 days. Tumor sizes were measured every 2 days starting from the day 6 using a caliper, and tumor volume was calculated using the formula V = length × width^2 × π / 6. The body weights of mice were recorded under the same conditions. The mice were sacrificed on day 22, and the tumors were taken out and weighted."}}, "note": "“Also recorded” adds a separate entry of the source."}
{"smiles": "Cn1nc(Cc2ccccc2)nc2c(=O)n(C)c(=O)nc1-2", "note": "[CH004, 3-benzyl-1,6-dimethylpyrimido[5,4-e][1,2,4]triazine-5,7(1H,6H)-dione]", "values": [{"measurement": "effect on production of H2S", "setting": "hCSE", "result": "did not interfere"}, {"measurement": "reduction of tumor volume or weight", "setting": "[1]; 21-day treatment", "result": "more than half"}, {"measurement": "effect on total body weight", "setting": "[1]; 21 days", "result": "did not substantially affect; also recorded: hardly affects"}, {"measurement": "growth rate of tumor", "setting": "[1]; since day 12 of treatment, p < 0.001", "result": "significantly reduced"}]}
